Tested on: awake Wistar rats with activated renin-angiotensin-aldosterone system
Assay: In vivo assay for detecting natriuretic activity in conscious rats with activated RAAS
Set-up: Volume urine / body weight: unit not given here
Conditions: 8 hours after oral administration, metabolic cages, 3 mg/kg Finerenone, 0.3 mg/kg Pecavaptan, or both combined, mean ± SD, n = 7-8; for Urinary Na+/K+ concentration ratio: calculated from urinary sodium and potassium concentrations
Excerpt: Wistar rats (ca. 250-500 g body weight) were kept with free access to feed (Altromin) and drinking water. […] This sodium-reduced feed causes an activation of the RAAS in the animals during the 3 days run-in phase and therefore mimics a neuroendocrine activation which is characteristic for cardiorenal diseases. During the test, the animals were housed singly in metabolic cages suitable for rats of this weight class (Tecniplast Deutschland GmbH, D-82383 Hohenpeissenberg) with free access to reduced-salt feed and drinking water for up to 24 hours. At the start of the test, the substance to be tested was administered by means of gavage in a volume of 2-3 ml/kg of body weight of a suitable solvent ('Adalat Placebo': 85.8% PEG400, 5.3% glycerol, 8.9% water). Control animals received only solvent ('Adalat Placebo' or solvent in table 2 below). Controls and substance tests were carried out in parallel on the same day. Control groups and substance-dose groups each consisted of 7 to 8 animals. During the test, the urine excreted by the animals was continuously collected in a receiver on the base of the cage. The urine volume per collection time was determined separately for each animal, and the concentration of the sodium and potassium ions excreted in the urine was measured by standard methods of flame photometry by a clinical-chemical analyzer system (ADVIA 2400, Siemens). The sodium/potassium ratio was calculated on the basis of the individual urinary sodium and potassium concentrations. The measurement intervals were typically the period up to 8 hours after the start of the test (day interval) or up to 24 hours after the start of the test (day and night interval).
In this comparison, four different administrations were performed: Group A received the solvent (Adalat Placebo) only. This group serves as control group. Group B received finerenone only. It serves to detect the effect of the monotherapy with finerenone. Group C received pecavaptan only. It serves to detect the effect of the monotherapy with pecavaptan. Group D received finerenone and pecavaptan in combination. It serves to detect the effect of the combined therapy with finerenone and pecavaptan (combination according to the invention). After the treatment, the urinary volume, urinary sodium and potassium concentrations were measured. Based on this measurement the sodium/potassium ratio was calculated. Table 2: Measured data (mean values ± standard deviation [SD]) of urinary volume, urinary potassium concentration (K+), urinary sodium concentration (Na+), and the resulting urinary sodium / potassium concentration ratio from awake Wistar rats with activated renin-angiotensin-aldosterone system (n = 7-8 animals per group), which were examined according to the 'assessment of the physiological efficacy' for 8 hours after oral administration of the substances in metabolic cages.

Row | SMILES | Urinary K+ concentration [mmol] | Urinary Na+ concentration [mmol] | Volume urine / body weight | Urinary Na+/K+ concentration ratio | Urinary Na+/K+ concentration ratio (listed as finerenone) | Urinary K+ concentration (listed as finerenone) | Urinary Na+ concentration (listed as finerenone) | Volume urine / body weight (listed as finerenone) | Urinary Na+/K+ concentration ratio (listed as pecavaptan) | Urinary K+ concentration (listed as pecavaptan) | Urinary Na+ concentration (listed as pecavaptan) | Volume urine / body weight (listed as pecavaptan)
1 | CCOc1ncc(C)c2c1[C@H](c1ccc(C#N)cc1OC)C(C(N)=O)=C(C)N2 [Finerenone, (S)-4-(4-cyano-2-methoxyphenyl)-5-ethoxy-2,8-dimethyl-1,4-dihydro-1,6-naphthyridin-3-carboxamide] | 0.84 ± 0.04 | 0.24 ± 0.03 | 12.069 ±0.563 | 0.283 ±0.031 | increase | no influence | increase | no influence | – | – | – | –
2 | C[C@H](O)c1nc(Cn2nc(-c3ccc(Cl)cc3)n(C[C@H](O)C(F)(F)F)c2=O)nn1-c1cccc(Cl)c1 [Pecavaptan, 5-(4-chlorophenyl)-2-({1-(3-chlorophenyl)-5-[(1S)-1-hydroxyethyl]-1H-1,2,4-triazol-3-yl}methyl)-4-[(2S)-3,3,3-trifluoro-2-hydroxypropyl]-2,4-dihydro-3H-1,2,4-triazol-3-one] | 1.35 ± 0.08 | 0.72 ± 0.11 | 80.070 ±9.661 | 0.534 ±0.074 | – | – | – | – | increased | increases | increases | increases

Reference: patent EP3900722A1, “COMBINATION OF FINERENONE AND PECAVAPTAN FOR THE TREATMENT AND/OR PREVENTION OF CARDIOVASCULAR AND/OR RENAL DISEASES” (Bayer AG, priority 2020, dated 2021)
